{"source": "paper PMC3353486", "about": "“Fluorescence Correlation Spectroscopy in Drug Discovery: Study of Alexa532-Endothelin 1 Binding to the Endothelin ETA Receptor to Describe the Pharmacological Profile of Natural Products” (The Scientific World Journal, 2012)", "key": {"endothelin ETA receptor": {"target": "T1, endothelin ETA receptor (Rattus norvegicus, UniProt P26684)", "T1 construct": "endothelin ETA receptor-ligand complex alone and under the influence of a semisynthetic selective antagonist and a fungal extract on living A10 cells; endogenous in cells; host or cells: A10 cells", "T1 sequence (P26684 21-426)": "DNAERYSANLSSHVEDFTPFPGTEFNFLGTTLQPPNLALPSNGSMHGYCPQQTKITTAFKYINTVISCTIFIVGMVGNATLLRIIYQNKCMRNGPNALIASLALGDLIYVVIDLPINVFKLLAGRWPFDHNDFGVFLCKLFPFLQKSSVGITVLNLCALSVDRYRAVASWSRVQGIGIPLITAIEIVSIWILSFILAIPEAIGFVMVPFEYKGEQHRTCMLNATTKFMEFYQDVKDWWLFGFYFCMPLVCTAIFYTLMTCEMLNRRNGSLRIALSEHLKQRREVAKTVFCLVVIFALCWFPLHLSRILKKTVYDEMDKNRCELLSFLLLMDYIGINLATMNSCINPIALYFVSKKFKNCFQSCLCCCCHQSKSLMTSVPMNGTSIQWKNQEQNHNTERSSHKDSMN", "experiment": "FCS binding of Alexa532-ET1 to ETA receptor on living A10 cells (total, saturation, lateral mobility)", "quoted_text": "FCS measurements were performed via confocal illumination of a volume element of 0.19 fL in a ConfoCor 1 instrument (Zeiss, Jena, Germany) with a C-Apochromat 63x, NA 1.2 objective for water immersion. A dichroic filter and a band-pass filter (FT 540, EF 530–600) (Andover, Salem, MA) separated the excitation light from the emitted fluorescence. Sample excitation was performed with the 514 nm line of an argon laser. The power of the laser beam entering the sample was 2.4 kW/cm^2. The intensity fluctuations were detected by an avalanche photodiode (SPCM-AQ Series, PerkinElmer Optoelectronics, Fremont, ON) and were correlated with a digital hardware correlator (ALV-5000, ALV, Langen, Germany). To calibrate the volume element of observation for the experiments, a defined concentration of tetramethylrhodamine (TMR) was used. From the determined diffusion time constant of TMR and the diffusion coefficient D of 280 μm^2/s, the radio ω 0 (0.20 μm) and z 0 (1.08 μm) of the volume element were determined. Volume element positioning to the upper membrane of the cell was performed by motor-aided scanning through the cell in the z-direction (optoelectronical DC-servodrives, resolution of 0.1 μm). For the FCS experiments, the focus was placed at half maximal of fluorescence intensity at the upper membrane, taking in fast diffusing free ligand and slow diffusing receptor-ligand complexes in the plasma membrane.\nA10 cells were seeded at a density of 5.0 × 10^4 on 18 mm poly-D-lysine-coated coverslips. The coverslips were placed in a Nunc 12 well plate, and the cells were cultured for 7 days in Dulbecco's Modified Essential Media supplemented with L-glutamine (2 mM), 1% of a solution containing 10000 I.U./mL penicillin and 10000 μg/mL streptomycin (GIBCO, Invitrogen, Karlsruhe, Germany) and 20% foetal calf serum. The cells were grown in 5% CO2 at 37°C until confluence was reached.\nPrior to the FCS measurements, cells were washed three times with Locke's solution (5 mM HEPES, 154 mM NaCl, 5.6 mM KCl, 1 mM MgCl2, 3.6 mM Na2CO3, 2.0 mM glucose, 2.3 mM CaCl2 (pH 7.4)) at 37°C.\nThe autocorrelation function G(τ) for j different diffusing components in a three-dimensional Gaussian volume element is given by the following equation:\n(2) τDj=ω02/4Dj, (3) Qj=σjηjgj, where N j is the average number of molecules of the species j in the volume element, τ Dj is the diffusion time constant of the species j, τ is the correlation time; ω 0 is the radius of the observation volume in the focal plane, z 0 is the radius of the observation volume in the z-direction, D j is the translational diffusion coefficient of the species j; Q j is the quantum yield factor, σ j is the absorption coefficient, η j is the fluorescence quantum yield, and g j is the fluorescence detection efficiency of the species j.\nAll data points from FCS measurements represent mean values and standard deviations of six independent experiments. The statistical significance of results was proven with one factorial analysis of variance (ANOVA). The results were considered to be significant for P values ≤0.05."}, "[1]": {"system": "Rat vascular smooth muscle A10 cells", "experiment": "Inositol phosphate (IP1) production, IP-One ELISA, A10 cells", "format": "cell-based", "conditions": "0.5 to 50 nM ligand, 30 min; for inositol phosphate (IP1) production, dose-dependent increase up to: ELISA read at 450 nm, mean ± SEM of eight measurements", "experimental": "The inositol phosphate determination assay was performed using the IP-One ELISA Kit for adherent cells (CISBIO, Cedex, France) following the operation instructions. […] The test substances were diluted in the stimulation buffer to a final concentration ranging from 0.5 to 50 nM. Cells were incubated for 30 minutes before their lysis. The supernatant was transferred into the ELISA plate where the competitive immunoassay took place. After the reaction was stopped, the optical density corresponding to IP accumulation was read at 450 nm with Bio-Rad Microplate Reader (Bio-Rad, Munich, Germany).\nData are presented as the mean ± SEM of eight measurements."}, "GABAA receptor": {"system": "GABAA receptor", "conditions": "coincubated benzodiazepines, hippocampal neurons, selectively complexes with hindered lateral mobility; cited from earlier work", "text": "For the ETA receptor model described here, as well as for the GABAA and the β 2-adrenergic receptor models described elsewhere, the proportion of the fast diffusing receptor-ligand complexes was higher than that of slow diffusing receptor-ligand complexes. These findings ..."}, "ETA receptor": {"system": "ETA receptor", "set-up": "method as in PMID 8942650", "conditions": "ET-1/receptor complexes dissociate slowly; cited from earlier work"}, "[2]": {"conditions": "14.3 nM Alexa532-ET1, equilibrium"}, "[3]": {"conditions": "control, 14.3 nM Alexa532-ET1, 45 min, living A10 cells, FCS, mean ± SD of six independent experiments"}}, "data": [{"compound": "CC[C@H](C)[C@H](NC(=O)[C@H](CC(=O)O)NC(=O)[C@H](CC(C)C)NC(=O)[C@H](Cc1c[nH]cn1)NC(=O)[C@@H]1CSSC[C@H](N)C(=O)N[C@@H](CO)C(=O)N[C@H]2CSSC[C@H](NC(=O)[C@H](CCC(=O)O)NC(=O)[C@H](CCCCNC(=O)c3ccc(C4=c5cc6c(c(S(=O)(=O)O)c5Oc5c4cc4c(c5S(=O)(=O)O)NC(C)C4(C)C)=NC(C)C6(C)C)cc3)NC(=O)[C@H](CC(=O)O)NC(=O)[C@H](CCSC)NC(=O)[C@H](CC(C)C)NC(=O)[C@H](CO)NC(=O)[C@H](CO)NC2=O)C(=O)N[C@@H](C(C)C)C(=O)N[C@@H](Cc2ccc(O)cc2)C(=O)N[C@@H](Cc2ccccc2)C(=O)N1)C(=O)N[C@H](C(=O)N[C@@H](Cc1c[nH]c2ccccc12)C(=O)O)[C@@H](C)CC", "note": "(some centres unmarked) [Alexa532-ET1]", "values": [{"measurement": "total binding", "setting": "endothelin ETA receptor; 14.3 nM Alexa532-ET1, 45 min, 20°C", "result": "43.5 ± 12.3", "unit": "%"}, {"measurement": "total bound ligand concentration", "setting": "endothelin ETA receptor; 14.3 nM Alexa532-ET1, 45 min, 20°C, equilibrium", "result": "6.22 ± 1.7", "unit": "nM"}, {"measurement": "bound ligand with hindered diffusion (D bound1)", "setting": "endothelin ETA receptor; [2]", "result": "2.3 ± 0.7", "unit": "nM"}, {"measurement": "receptor-ligand complexes with unrestricted lateral mobility (D bound2)", "setting": "endothelin ETA receptor; [2]", "result": "3.9 ± 1.0", "unit": "nM"}, {"measurement": "maximum number of binding sites B max", "setting": "endothelin ETA receptor; bound versus total ligand, nonlinear curve fitting", "result": "7.70 ± 0.74", "unit": "nM"}, {"measurement": "Free L with D free [%]", "setting": "endothelin ETA receptor; [3]", "result": "56.5 ± 8.5", "unit": "%"}, {"measurement": "R-L with D bound1 [%] (hindered diffusion, % of total Alexa532-ET1)", "setting": "endothelin ETA receptor; [3]", "result": "16.0 ± 5.2", "unit": "%"}, {"measurement": "R-L with D bound2 [%] (unrestricted lateral mobility, % of total Alexa532-ET1)", "setting": "endothelin ETA receptor; [3]", "result": "27.5 ± 7.0", "unit": "%"}, {"measurement": "diffusion time constant τ bound2", "setting": "endothelin ETA receptor; receptor-ligand complex in plasma membrane, fast, 14.3 nM, 45 min, 20°C, n = 6", "result": "1.8 ± 0.2", "unit": "ms"}, {"measurement": "diffusion time constant τ bound1", "setting": "endothelin ETA receptor; receptor-ligand complex in plasma membrane, slow, 14.3 nM, 45 min, 20°C, n = 6", "result": "63.6 ± 41.6", "unit": "ms"}, {"measurement": "diffusion coefficient D bound1", "setting": "endothelin ETA receptor; receptor-ligand complexes with hindered lateral mobility, calculated from τ bound1", "result": "0.16 ± 0.06", "unit": "μm^2/s"}, {"measurement": "diffusion coefficient D bound2", "setting": "endothelin ETA receptor; receptor-ligand complexes with unrestricted mobility, calculated from τ bound2", "result": "5.6 ± 0.6", "unit": "μm^2/s"}, {"measurement": "total concentration at which binding saturates", "setting": "endothelin ETA receptor; saturation of Alexa532-ET1 binding, 5–55 nM, 45 min", "result": "approximately 35 nM"}, {"measurement": "diffusion time constant τ free", "setting": "free diffusing Alexa532-ET1 in solution, n = 6", "result": "95.6 ± 9.0", "unit": "μs"}, {"measurement": "diffusion coefficient D free", "setting": "free diffusing ligand, calculated from τ free using equation (2)", "result": "104.2 ± 9.0", "unit": "μm^2/s"}, {"measurement": "inositol phosphate production (in words)", "setting": "[1]", "result": "Dose-dependent increase of inositol phosphate production"}, {"measurement": "inositol phosphate (IP1) production, dose-dependent increase up to", "setting": "[1]", "result": "70 to 80", "unit": "nM"}]}, {"compound": "Cc1ncc2n1-c1ccc(Cl)cc1C(c1ccccc1F)=NC2", "note": "[midazolam]", "values": [{"measurement": "effect on Alexa532-muscimol binding (in words)", "setting": "GABAA receptor", "result": "increased binding of Alexa532-muscimol"}]}, {"compound": "Endothelin-1 [ET-1, reference compound]", "values": [{"measurement": "inositol phosphate (IP1) production, dose-dependent increase up to", "setting": "[1]", "result": "70 to 80", "unit": "nM"}, {"measurement": "incubation time necessary to reach thermodynamic equilibrium", "setting": "ETA receptor", "result": "more than 20 h"}]}]}
